These results are taken from publication PMC6934184, “Selective DNA-PKcs inhibition extends the therapeutic index of localized radiotherapy and chemotherapy” (The Journal of Clinical Investigation, 2019).

The experiment addresses T1, ALK F1174L (Homo sapiens, UniProt Q9UM73, F1174L).
T1 construct: purchased Thermo Fisher Scientific (Life Technologies) SelectScreen
Briefly: SelectScreen LanthaScreen. Particulars: read-out: % displacement. It is filed as binding. Put shortly:
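SelectScreen broad panel; activity (Z'LYTE, Adapta) plus binding formats. ATP: Km app for CSF1R Z'LYTE; 10 for CAMK1 Adapta. Readout = % per kinase.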
(In general: Time-resolved FRET reads energy transfer from a long-lived donor to a nearby acceptor.)

Structures are written as SMILES.

T1 sequence (Q9UM73 19-1620 F1174L): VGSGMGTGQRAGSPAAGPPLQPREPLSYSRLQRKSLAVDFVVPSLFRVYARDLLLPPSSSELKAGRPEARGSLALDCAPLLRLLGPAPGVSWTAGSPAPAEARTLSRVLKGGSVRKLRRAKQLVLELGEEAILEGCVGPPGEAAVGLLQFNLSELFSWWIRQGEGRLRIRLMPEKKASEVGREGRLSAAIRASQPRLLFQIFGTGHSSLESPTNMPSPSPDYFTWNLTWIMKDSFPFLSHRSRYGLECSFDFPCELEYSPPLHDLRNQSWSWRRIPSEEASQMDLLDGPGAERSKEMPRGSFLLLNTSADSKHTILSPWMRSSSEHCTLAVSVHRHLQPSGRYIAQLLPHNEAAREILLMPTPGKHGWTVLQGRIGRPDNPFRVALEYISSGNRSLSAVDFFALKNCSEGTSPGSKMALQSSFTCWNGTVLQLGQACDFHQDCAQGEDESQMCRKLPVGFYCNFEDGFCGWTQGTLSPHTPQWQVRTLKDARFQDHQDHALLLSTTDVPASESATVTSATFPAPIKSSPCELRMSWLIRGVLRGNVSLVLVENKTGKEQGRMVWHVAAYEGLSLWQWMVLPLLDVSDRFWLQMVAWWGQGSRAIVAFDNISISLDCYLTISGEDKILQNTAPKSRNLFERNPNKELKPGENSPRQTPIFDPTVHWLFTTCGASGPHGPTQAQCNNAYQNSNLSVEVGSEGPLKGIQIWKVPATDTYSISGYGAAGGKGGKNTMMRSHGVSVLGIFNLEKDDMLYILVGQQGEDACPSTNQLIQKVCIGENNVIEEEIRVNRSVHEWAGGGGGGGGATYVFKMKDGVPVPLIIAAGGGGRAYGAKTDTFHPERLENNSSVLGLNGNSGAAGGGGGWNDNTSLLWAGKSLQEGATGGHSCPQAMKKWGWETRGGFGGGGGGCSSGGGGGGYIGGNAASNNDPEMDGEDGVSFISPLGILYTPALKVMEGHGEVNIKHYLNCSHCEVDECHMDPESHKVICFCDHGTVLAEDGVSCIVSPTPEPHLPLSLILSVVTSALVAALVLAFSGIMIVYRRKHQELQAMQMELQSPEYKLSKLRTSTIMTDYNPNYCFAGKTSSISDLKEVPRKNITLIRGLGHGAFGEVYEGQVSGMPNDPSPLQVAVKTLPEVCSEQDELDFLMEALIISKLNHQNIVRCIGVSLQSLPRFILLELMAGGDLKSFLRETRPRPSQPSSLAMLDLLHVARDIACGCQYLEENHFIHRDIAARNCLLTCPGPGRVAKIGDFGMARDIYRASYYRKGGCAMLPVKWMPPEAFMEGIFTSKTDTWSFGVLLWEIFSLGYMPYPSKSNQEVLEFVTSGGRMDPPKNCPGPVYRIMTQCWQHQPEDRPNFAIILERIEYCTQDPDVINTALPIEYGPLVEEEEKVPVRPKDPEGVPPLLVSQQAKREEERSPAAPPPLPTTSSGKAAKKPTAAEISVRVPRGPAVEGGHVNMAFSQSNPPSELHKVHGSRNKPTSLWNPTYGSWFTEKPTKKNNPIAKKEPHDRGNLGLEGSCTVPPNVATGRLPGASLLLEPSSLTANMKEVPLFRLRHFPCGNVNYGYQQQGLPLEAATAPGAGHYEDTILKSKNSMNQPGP

For the compound `CN(C(=O)CN1CCOCC1)c1ccc2sc3c(-c4cccc5c(=O)cc(N6CC7CCC(C6)O7)oc45)cccc3c2c1` [NU5455], the inhibition at 1 µM was 1.6%.
